Results published in patent US20130065888A1, “OPHTHALMIC FORMULATIONS AND PROCESSES FOR THEIR PREPARATION” (priority 2011, published 2013).

Assay: Numerical particle size distribution by microscopical image analysis of brinzolamide suspensions made by different homogenization techniques (Example 1)
Assay type: physicochemical
Details: suspension in 0.05% Polysorbate 80, prior to treatment
Method: Preferably, particle size analyses and particle size distributions of the suspension are obtained by microscopy using a particle size analyser (preferably by following US Pharmacopeia 29 <776>—Optical Microscopy).
In Examples 1.1, 1.2 and 1.3, brinzolamide ophthalmic suspensions were prepared by using three different homogenization techniques (high pressure homogenization in accordance with the present invention, high shear homogenization and ball milling) in order to test the effectiveness these techniques on de-agglomeration of brinzolamide particles and coating of the particles with wetting agent. Three different wetting agents were used (Polysorbate 80, Poloxamer 407 and Tyloxapol). Particle size analyses were conducted by microscopy.
Portions of the suspension were treated separately by the following three methods (i)-(iii): • (i) high pressure homogenization (5000 psi/5 cycles using Microfluidizer® high pressure homogenizer) • (ii) high shear homogenization (8000 rpm/120 minutes (Ultra-Turrax high shear mixer) • (iii) ball milling (8.5 hours at 22-24 rpm (tumble blender; Zirconox beads: 0.7-1.2 mm)

CCN[C@H]1CN(CCCOC)S(=O)(=O)c2sc(S(N)(=O)=O)cc21 [brinzolamide]
particle size distribution of the individual brinzolamide particles, d90: ≤ 3.0 μm | particle size of agglomerates of brinzolamide: greater than 10 μm
